Inconclusive results and toxic doses are left out. How the source made its calls: active means survival T/C of 150% or more; inactive means T/C below 125% in these data.
Test system: P388 leukemia ip, CD2F1 mice, survival T/C
Test: NCI In Vivo Anticancer Drug Screen. Data for tumor model P388 Leukemia (intraperitoneal) in CD2F1 (CDF1) mice
Details: endpoint: median survival time, higher = longer survival
Outline: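 Mice carrying the transplanted tumor received test compound or vehicle. Survival was recorded in each group, and the value is the treated-group measurement divided by that of the vehicle-treated control group.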

[1] = dose: 50.0 mg/kg/injection, schedule: Q01DX005 (ip), vehicle: Klucel (hydroxypropylcellulose) (HPC)
[2] = dose: 50.0 mg/kg/injection, schedule: Q01DX005 (ip), vehicle: saline
[3] = dose: 100.0 mg/kg/injection, schedule: Q01DX005 (ip), vehicle: saline
[4] = dose: 200.0 mg/kg/injection, schedule: Q01DX005 (ip), vehicle: saline
[5] = dose: 12.5 mg/kg/injection, schedule: Q01DX009 (ip), vehicle: Klucel (hydroxypropylcellulose) (HPC)
[6] = dose: 25.0 mg/kg/injection, schedule: Q01DX009 (ip), vehicle: Klucel (hydroxypropylcellulose) (HPC)
[7] = dose: 50.0 mg/kg/injection, schedule: Q01DX009 (ip), vehicle: Klucel (hydroxypropylcellulose) (HPC)

Measured: T/C

COC(=O)NC1CCC(=O)N1Cc1ccccc1 (stereo unspecified)
inactive: dose: 60.0 mg/kg/injection, schedule: Q01DX005 (ip), vehicle: saline with Tween-80 96 % of control | dose: 120.0 mg/kg/injection, schedule: Q01DX005 (ip), vehicle: saline with Tween-80 94 % of control | dose: 240.0 mg/kg/injection, schedule: Q01DX005 (ip), vehicle: saline with Tween-80 102 % of control

COc1cc2nncc(Cl)c2cc1OC
inactive: [1] 101 % of control

Oc1cc2c(c3c(O)c4ccccc4c(O)c13)=NC1CCCCC1N=2 (stereo unspecified)
inactive: dose: 25.0 mg/kg/injection, schedule: Q01DX005 (ip), vehicle: Klucel (hydroxypropylcellulose) (HPC) 100 % of control | [1] 102 % of control | dose: 100.0 mg/kg/injection, schedule: Q01DX005 (ip), vehicle: Klucel (hydroxypropylcellulose) (HPC) 103 % of control | dose: 200.0 mg/kg/injection, schedule: Q01DX005 (ip), vehicle: Klucel (hydroxypropylcellulose) (HPC) 93 % of control

OCCOCCSCCOCCO
inactive: [2] 100 % of control | [3] 100 % of control | [4] 102 % of control

COC(=O)NC1CC(C2CO2)OC1=O (stereo unspecified)
inactive: [2] 101 % of control | [3] 99 % of control | [4] 109 % of control

O=C1CCSC(=S)N1c1ccc(F)cc1F
inactive: dose: 6.25 mg/kg/injection, schedule: Q01DX009 (ip), vehicle: saline 92 % of control | dose: 12.5 mg/kg/injection, schedule: Q01DX009 (ip), vehicle: saline 94 % of control | dose: 25.0 mg/kg/injection, schedule: Q01DX009 (ip), vehicle: saline 91 % of control | dose: 100.0 mg/kg/injection, schedule: Q01DX009 (ip), vehicle: saline 96 % of control | dose: 200.0 mg/kg/injection, schedule: Q01DX009 (ip), vehicle: saline 90 % of control | dose: 200.0 mg/kg/injection, schedule: Q01DX009 (ip), vehicle: suspension in saline 92 % of control

CCCCOP(=O)(OCCCC)OC(=C(F)F)C(F)(F)P(=O)(OCCCC)OCCCC
inactive: dose: 6.25 mg/kg/injection, schedule: Q01DX009 (ip), vehicle: Klucel (hydroxypropylcellulose) (HPC) 98 % of control | [5] 91 % of control | [6] 100 % of control

CN(C)c1ccc(/C=C/c2ccnc3c(O)ccc(O)c23)cc1
inactive: dose: 12.5 mg/kg/injection, schedule: Q01DX009 (ip), vehicle: saline with Tween-80 91 % of control | dose: 25.0 mg/kg/injection, schedule: Q01DX009 (ip), vehicle: saline with Tween-80 94 % of control | dose: 50.0 mg/kg/injection, schedule: Q01DX009 (ip), vehicle: saline with Tween-80 92 % of control

COc1ccc(CCN2C(=O)C(=O)N(C3CCCCC3)C2=O)cc1OC
inactive: [7] 93 % of control | dose: 100.0 mg/kg/injection, schedule: Q01DX009 (ip), vehicle: Klucel (hydroxypropylcellulose) (HPC) 95 % of control | dose: 200.0 mg/kg/injection, schedule: Q01DX009 (ip), vehicle: Klucel (hydroxypropylcellulose) (HPC) 100 % of control

CCOC(=O)C1C(=O)N2C(=O)C(NC(C)=O)=C(O)C2C1c1ccccc1 (stereo unspecified)
inactive: dose: 100.0 mg/kg/injection, schedule: Q04DX002 (ip), vehicle: saline with Tween-80 100 % of control | dose: 200.0 mg/kg/injection, schedule: Q04DX002 (ip), vehicle: saline with Tween-80 99 % of control | dose: 400.0 mg/kg/injection, schedule: Q04DX002 (ip), vehicle: saline with Tween-80 100 % of control

CN(C)N(P(c1ccccc1)c1ccccc1)P(c1ccccc1)c1ccccc1
inactive: dose: 100.0 mg/kg/injection, schedule: Q04DX003 (ip), vehicle: saline with Tween-80 93 % of control | dose: 200.0 mg/kg/injection, schedule: Q04DX003 (ip), vehicle: saline with Tween-80 92 % of control | dose: 400.0 mg/kg/injection, schedule: Q04DX003 (ip), vehicle: saline with Tween-80 94 % of control

COc1cc2c(/C=N/NS(=O)(=O)c3ccc(C)cc3)c(Cl)[nH]c2cc1C
inactive: [5] 103 % of control | [6] 95 % of control | [7] 92 % of control | dose: 100.0 mg/kg/injection, schedule: Q01DX001 (ip), vehicle: Klucel (hydroxypropylcellulose) (HPC) 100 % of control | dose: 200.0 mg/kg/injection, schedule: Q01DX001 (ip), vehicle: Klucel (hydroxypropylcellulose) (HPC) 120 % of control | dose: 400.0 mg/kg/injection, schedule: Q01DX001 (ip), vehicle: Klucel (hydroxypropylcellulose) (HPC) 100 % of control

— PubChem BioAssay AID330 (DTP/NCI, 2004)
